Measured values reported in patent US4650753A, “Novel substrates for use in measuring the concentration of kallikrein in urine” (Nitto Boseki Co., Ltd., priority 1984, dated 1987).

Experiments:
[1] = target: T1, Human kallikrein in urine (HUK) (Homo sapiens, UniProt P06870); test: Substrate specificity test: hydrolysis by human kallikrein in urine, colorimetric; assay type: biochemical; conditions: for Absorbance (O.D.), HUK: 700 nm (CHA substrate, pentacyanoamineferroate), S0 = 0.4 m mole, pH 9.0, 37° C., 5 minutes, 0.1 U/ml enzyme
T1 construct: purchased The Green Cross Corporation Lot No. Y1003SM
T1 sequence (P06870 25-262): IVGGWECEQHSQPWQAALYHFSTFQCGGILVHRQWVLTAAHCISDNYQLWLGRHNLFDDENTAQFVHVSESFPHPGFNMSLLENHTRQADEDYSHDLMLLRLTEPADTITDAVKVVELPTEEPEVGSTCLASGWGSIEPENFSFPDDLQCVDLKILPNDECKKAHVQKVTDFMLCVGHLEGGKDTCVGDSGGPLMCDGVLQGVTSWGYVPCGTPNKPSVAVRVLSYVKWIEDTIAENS
Experimental: (§1) The specificities of newly synthesized substrates were tested by reacting each of them with various enzymes as follows.
(§2) (1) Substrate solution: 2 m moles/liter.H2 O
(§3) (2) Buffer solutions: 50 m moles of tris(hydroxymethyl)aminomethane/hydrochloric acid buffer solution and 150 m moles/liter of NaCl solution were used, and the reaction pH were specified with respect to the enzymes as follows. […]
(§4) (4) Reaction stopper (PNA): 10%-acetic acid
(§5) (5) Chromogenic reagent (CHA): Pentacyanoamineferroate
(§6) (6) Method of determination:
(§7) 0.3 Milliliter of the buffer solution and 0.1 ml of the enzyme reagent were taken in a hard glass test tube of which surface being treated with silicone, or a plastic test tube and preheated in a thermostat at 37° C. for 5 minutes so as to conduct the enzymatic reaction. Precisely 5 minutes after the reaction was started, 2.0 ml of reaction stopper solution or reaction terminating chromogenic reagent was added to terminate the enzymatic reaction. After the enzymatic reaction was completed, the reaction mixture was allowed to stand at 37° C. for 10 minutes, and then the absorbance at 405 nm or 700 nm was measured.

Thrombin (TH) = target: T2, Thrombin (TH) (Bos taurus, UniProt P00735); test: Substrate specificity test: hydrolysis by thrombin, colorimetric; assay type: biochemical, Bovine; conditions: for Absorbance (O.D.), TH: 700 nm (CHA substrate, pentacyanoamineferroate), S0 = 0.4 m mole, pH 8.5, 37° C., 5 minutes, 4.0 NIH/ml enzyme
T2 construct: purchased Mochida Pharmaceutical Co., Ltd. Lot No. 65146
Experimental: as §1, §2, §3, §4, §5, §6, §7

Plasmin (PL) = target: T3, Plasmin (PL) (Homo sapiens, UniProt P00747); test: Substrate specificity test: hydrolysis by plasmin, colorimetric; assay type: biochemical; conditions: for Absorbance (O.D.), PL: 700 nm (CHA substrate, pentacyanoamineferroate), S0 = 0.4 m mole, pH 7.8, 37° C., 5 minutes, 0.25 CU/ml enzyme
T3 construct: purchased The Green Cross Corporation Lot No. PL-35
T3 sequence (P00747 581-810 limits assumed): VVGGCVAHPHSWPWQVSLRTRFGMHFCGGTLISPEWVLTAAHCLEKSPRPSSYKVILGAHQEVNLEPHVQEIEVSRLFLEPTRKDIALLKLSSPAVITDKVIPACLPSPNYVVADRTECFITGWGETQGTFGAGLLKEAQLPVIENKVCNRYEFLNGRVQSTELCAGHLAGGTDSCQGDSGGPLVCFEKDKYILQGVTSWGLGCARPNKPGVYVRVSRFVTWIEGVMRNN
T3 sequence (P00747 97-580 partner limits assumed): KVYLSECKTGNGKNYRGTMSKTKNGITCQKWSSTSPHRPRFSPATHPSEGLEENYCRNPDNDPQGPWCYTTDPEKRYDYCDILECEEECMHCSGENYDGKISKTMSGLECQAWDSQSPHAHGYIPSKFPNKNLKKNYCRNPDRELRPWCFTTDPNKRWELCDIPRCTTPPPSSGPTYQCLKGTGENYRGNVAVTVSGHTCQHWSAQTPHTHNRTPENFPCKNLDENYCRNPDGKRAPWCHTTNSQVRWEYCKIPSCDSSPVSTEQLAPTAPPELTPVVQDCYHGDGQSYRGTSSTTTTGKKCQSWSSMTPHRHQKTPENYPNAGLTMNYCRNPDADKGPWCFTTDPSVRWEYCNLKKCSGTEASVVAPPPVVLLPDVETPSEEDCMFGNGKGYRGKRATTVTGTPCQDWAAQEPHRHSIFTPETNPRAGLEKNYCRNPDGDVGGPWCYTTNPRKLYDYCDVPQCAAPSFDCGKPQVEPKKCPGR
Experimental: as §1, §2, §3, §4, §5, §6, §7

Urokinase (UK) = target: T4, Urokinase (UK) (Homo sapiens, UniProt P00749); test: Substrate specificity test: hydrolysis by urokinase, colorimetric; assay type: biochemical; conditions: for Absorbance (O.D.), UK: 700 nm (CHA substrate, pentacyanoamineferroate), S0 = 0.4 m mole, pH 8.2, 37° C., 5 minutes, 1000 U/ml enzyme
T4 construct: purchased Mochida Pharmaceutical Co., Ltd. Lot No. 2C239
Experimental: as §1, §2, §3, §4, §5, §6, §7

[2] = PS-2103N given as 100, S0 = 0.4 m mol

Substance	Absorbance (O.D.), HUK [1]	Relative reactivity to enzymes, HUK [1, 2]	Absorbance (O.D.), TH (Thrombin (TH))	Relative reactivity to enzymes, TH (Thrombin (TH); [2])	reactivity to thrombin (Thrombin (TH); relative to PS-2103N = 100)	Absorbance (O.D.), PL (Plasmin (PL))	Relative reactivity to enzymes, PL (Plasmin (PL); [2])	reactivity to plasmin (Plasmin (PL); relative to PS-2103N = 100)	Absorbance (O.D.), UK (Urokinase (UK))	Relative reactivity to enzymes, UK (Urokinase (UK); [2])	reactivity to urokinase (Urokinase (UK); relative to PS-2103N = 100)
H-D-Ala-Phe-Arg-CHA [PS-2103]	0.599 OD	242	0.007 OD	7	7%	0.011 OD	4	4%	0.0 OD	0	0%
H-D-PGlu-Phe-Arg-CHA [PS-2102]	0.128 OD	–	0.005 OD	–	–	0.016 OD	–	–	0.0 OD	–	–
H-D-Pro-Phe-Arg-CHA [PS-2100]	0.244 OD	–	0.016 OD	–	–	0.014 OD	–	–	0.003 OD	–	–
